{"source": "paper PMC6017062", "about": "“Probing the Inhibitor versus Chaperone Properties of sp^2-Iminosugars towards Human β-Glucocerebrosidase: A Picomolar Chaperone for Gaucher Disease” (Molecules : A Journal of Synthetic Chemistry and Natural …, 2018)", "key": {"[1]": {"biological_target": "T1, human β-glucocerebrosidase (GCase) (Homo sapiens, UniProt P04062, R534H)", "T1 construct": "purchased Genzyme (Genzyme Japan, Tokyo, Japan) / Sanofi Genzyme, Cambridge, MA, USA Cerezyme", "T1 sequence (P04062 40-536 R534H)": "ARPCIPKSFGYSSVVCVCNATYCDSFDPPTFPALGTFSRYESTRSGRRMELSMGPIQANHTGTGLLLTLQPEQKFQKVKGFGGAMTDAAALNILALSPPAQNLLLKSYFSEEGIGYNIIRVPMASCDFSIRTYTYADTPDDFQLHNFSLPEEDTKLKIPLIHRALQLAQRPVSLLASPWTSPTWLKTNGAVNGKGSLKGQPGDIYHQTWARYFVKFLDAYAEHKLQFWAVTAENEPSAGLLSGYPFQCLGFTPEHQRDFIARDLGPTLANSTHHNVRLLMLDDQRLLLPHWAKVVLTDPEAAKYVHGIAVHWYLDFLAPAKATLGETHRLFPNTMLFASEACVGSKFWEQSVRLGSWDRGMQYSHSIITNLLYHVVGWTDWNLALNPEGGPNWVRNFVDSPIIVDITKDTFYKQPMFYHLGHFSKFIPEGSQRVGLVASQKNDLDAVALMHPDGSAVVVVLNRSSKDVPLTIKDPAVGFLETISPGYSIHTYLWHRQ", "assay": "Purified recombinant human GCase inhibition in vitro", "format": "biochemical", "conditions": "for Ki: purified recombinant enzyme (Cerezyme), 4-MU glucopyranoside substrate", "procedure": "Comparative assessment of the inhibition abilities of 1–4 against human lysosomal glycosidases in cell lysates (in vitro enzyme assay; see Experimental Section) confirmed the selectivity pattern previously observed for the commercial enzymes: whereas GCase was responsive to μM concentrations of the sp^2-iminosugars, the activity of lysosomal α-glucosidase, α- and β-galactosidases, α- and β-mannosidases, and hexosaminidase was not affected at concentrations of up to 200 μM. The corresponding Ki values were determined at pH 7 and 5 using purified recombinant human GCase and 4-methylumbelliferone (4-MU)-conjugated […] as the substrate (Table 2).\nGCase activities were determined as above using purified human GCase, obtained from Genzyme (Genzyme Japan, Tokyo, Japan) in 0.1 M citrate buffer at pH 5 or pH 7 and 4-methylumbelliferone (4-MU)-conjugated β-D-glucopyranoside as the substrate. The reactions were terminated by adding 0.2 mL of 0.2 M glycine sodium hydroxide buffer (pH 10.7). The liberated 4-methylumbelliferone was measured in a black-well plate with a Perkin Elmer Luminescence Spectrometer, Waltham, MA, USA (excitation wavelength: 340 nm; emission: 460 nm)."}, "[2]": {"biological_target": "T2, GCase (Homo sapiens, UniProt P04062)", "T2 construct": "endogenous in cells; host or cells: normal human skin fibroblasts", "T2 sequence (P04062 40-536)": "T1 sequence (P04062 40-536 R534H) with H495R", "assay": "GCase activity in cultured healthy human fibroblasts", "format": "cell-based", "conditions": "5 days culture", "procedure": "For that purpose, cells were cultured for 5 days in the absence and in the presence of various concentrations of the compounds, then lysed, and the enzyme activity was determined using 4-methylumbelliferyl β-D-glucopyranoside as substrate. Higher GCase activities in the lysate indicate that larger amounts of the protein are present and that it is functional.\n(§1) Normal and Gaucher disease patients’ skin fibroblasts were cultured in Dulbecco modified Eagle’s medium (WAKO, Richmond, VA, USA) supplemented with 10% fetal bovine serum (Nichirei Biosci. Inc., Tokyo, Japan) at 37 °C in 5% CO2. For measurement of chaperone activities, fibroblasts were plated onto 35 mm dishes at 50,000 cells per dish. After 24 h incubation, the medium with the indicated concentrations of compound was applied and cells were cultured for 96 h. Then, the lysates in 0.1% Triton-X100/distilled H2O were collected from the cells and assayed for lysosomal GCase as described above. To measure the cytotoxic effect of the compounds, normal human fibroblasts were plated onto 35 mm dishes at 15,000 cells per dish and incubated overnight. Then, the medium was changed with or without compounds. After 24 h incubation, the supernatant of the cells was collected and measured by the lactate dehydrogenase assay (WAKO, Richmond, VA, USA). All the cell lines used were tested for mycoplasma contamination before conducting the chaperone and toxicity assays."}, "[3]": {"assay": "pKa determination", "format": "physicochemical"}, "[4]": {"biological_target": "T3, N188S/G183W mutant GCase (Homo sapiens, UniProt P04062, N227S)", "T3 construct": "endogenous in cells; host or cells: skin fibroblasts of N188S/G183W type 3 Gaucher patients", "T3 sequence (P04062 40-536 N227S)": "T1 sequence (P04062 40-536 R534H) with N188S, H495R", "assay": "Chaperone test in N188S/G183W type 3 Gaucher patient fibroblasts", "format": "cell-based", "conditions": "N188S/G183W Gaucher fibroblasts", "from_the_text": "To test the chaperoning capabilities, Gaucher fibroblasts from patients hosting the adult neuronopathic (type 3) Gaucher disease-associated N188S/G183W mutant GCase were employed. It is worth mentioning that the neuronopathic clinical subtypes of Gaucher disease remain currently at orphan status, given the inability of the recombinant enzyme used in enzyme replacement therapy or the glucosylceramide synthase inhibitor Zavesca® used in substrate reduction therapy to cross the blood–brain barrier. This mutation is located in the catalytic domain (domain III) of GCase and has been previously found to be responsive to sp^2-iminosugar-type chaperones. […] Yet, the activity trend as a function of the chaperone concentration was starkly different between them. Thus, the nonreducing representatives 3 and 4 reached the maximum chaperoning effect at 200 nM and as low as 2 nM concentration, respectively, as compared with 20 and 2 μM for the reducing homologues 1 and 2.\nas §1"}, "[5]": {"test_system": "L444P mutant GCase", "set-up": "method as in PMID 22512696", "conditions": "homozygous L444P Gaucher lymphoblasts; cited from earlier work"}, "[6]": {"test_system": "L444P mutant GCase", "conditions": "homozygous L444P Gaucher fibroblasts; cited from earlier work"}, "[7]": {"conditions": "pH 5, read-out: Ki human GCase, pH 5"}, "[8]": {"conditions": "pH 7, read-out: Ki human GCase, pH 7"}}, "note": "Substitutions are numbered along the chain they refer to. Where two headings read alike, the source gives them in different places."}
{"molecule": "CCCCCCCCN=C1OCC2C(O)C(O)C(O)C(O)N12", "note": "(stereo not shown) [Compound 1]", "values": [{"measurement": "Ki", "setting": "[1]; [7]", "value": "54.4 ± 0.38", "unit": "µM"}, {"measurement": "Ki", "setting": "[1]; [8]", "value": "15.1 ± 0.97", "unit": "µM"}, {"measurement": "GCase activity in healthy human fibroblasts over the whole range of concentrations", "setting": "[2]", "value": "essentially unaltered"}, {"measurement": "pKa", "setting": "[3]", "value": 8.9}, {"measurement": "concentration of maximum chaperoning effect", "setting": "[4]", "value": 20, "unit": "µM"}]}
{"molecule": "CCCCCCCCN=C1SCC2C(O)C(O)C(O)C(O)N12", "note": "(stereo not shown) [Compound 2]", "values": [{"measurement": "fold enhancement of GCase inhibition potency upon replacement of O-6 by sulfur, pH 5", "setting": "[1]; pH 5, 2 vs 1, 4 vs 3", "value": 52, "unit": "fold"}, {"measurement": "Ki", "setting": "[1]; [7]", "value": "1.05 ± 0.068", "unit": "µM"}, {"measurement": "fold enhancement of GCase inhibition potency upon replacement of O-6 by sulfur, pH 7", "setting": "[1]; pH 7, 2 vs 1, 4 vs 3", "value": 58, "unit": "fold"}, {"measurement": "Ki", "setting": "[1]; [8]", "value": "0.26 ± 0.013", "unit": "µM"}, {"measurement": "GCase activity in healthy human fibroblasts over the whole range of concentrations", "setting": "[2]", "value": "essentially unaltered"}, {"measurement": "pKa", "setting": "[3]", "value": 8.3}, {"measurement": "concentration of maximum chaperoning effect", "setting": "[4]", "value": 2, "unit": "µM"}]}
{"molecule": "CCCCCCCC/N=C1/OC[C@@H]2[C@@H](O)[C@H](O)[C@@H](O)CN12", "note": "[Compound 3]", "values": [{"measurement": "fold stronger GCase inhibition of nonreducing vs reducing partner", "setting": "[1]; 3 vs 1, 4 vs 2", "value": "about 10 fold"}, {"measurement": "Ki", "setting": "[1]; [7]", "value": "6.3 ± 0.16", "unit": "µM"}, {"measurement": "Ki", "setting": "[1]; [8]", "value": "1.7 ± 0.066", "unit": "µM"}, {"measurement": "GCase activity in lysates of healthy human fibroblasts at 20 μM", "setting": "[2]; 20 μM", "value": "virtually full inhibition"}, {"measurement": "GCase activity in lysates of healthy human fibroblasts at higher concentrations", "setting": "[2]; concentrations higher than 20 nM", "value": "significantly inhibited"}, {"measurement": "pKa", "setting": "[3]", "value": 9.3}, {"measurement": "concentration of maximum chaperoning effect", "setting": "[4]", "value": 0.2, "unit": "µM"}, {"measurement": "concentration over which chaperone/inhibitor balance is unfavorable (net decrease in mutant enzyme activity vs control)", "setting": "[4]", "value": "over 20 μM"}]}
{"molecule": "CCCCCCCCCN[C@H]1[C@H](O)[C@@H](O)[C@H](O)[C@@H](O)[C@@H]1OCCCCCCCCC", "note": "[Compound 19, (1R,2S,3R,4S,5S,6R)-5-(nonylamino)-6-(nonyloxy)cyclohexane-1,2,3,4-tetraol]", "values": [{"measurement": "mutant GCase activity enhancement at 10 pM", "setting": "[5]", "value": 40, "unit": "%"}]}
{"molecule": "CCCCCCCCCC(=O)OC[C@H](C[C@H]1NC[C@@H](O)[C@H](O)[C@H]1O)OC(=O)CCCCCCCCC", "note": "[Compound 23]", "values": [{"measurement": "mutant GCase activity enhancement at 50 nM", "setting": "[6]", "value": 100, "unit": "%"}]}
